Measurements taken from PMC6470953, “Symmetrical Modification of Minimized Dermaseptins to Extend the Spectrum of Antimicrobials with Endotoxin Neutralization Potency” (International Journal of Molecular Sciences, 2019).
Where no end group is shown, it is not given here.

Legend:
Type in all cases: cell-based
[1] = tested on: B. subtilis CMCC 63501; assay: MIC assay, B. subtilis CMCC 63501; conditions: two-fold dilution in 96-well plates, MHB, 2-7 × 10^5 CFU/mL, 18–24 h, 37 °C
Experimental: (§1) MIC measurements were performed in 96-well plates. The peptides were dissolved in 0.2% bovine serum albumin and 0.01% acetic acid, and an appropriate broth was subjected to a series of two-fold dilutions. The final concentration of microbial suspensions was from 2 × 10^5 to 7 × 10^5 colony forming units (CFU)∙mL^−1. Key parameters were volume (50 μL bacterial suspension + 50 μL peptide solution), incubating time (18–24 h), and temperature (37 °C). Each test was performed in three replicates on at least two independent occasions. The Mueller Hilton broth (MHB) (AoBoX, Shanghai, China) without or with microbial cells was regarded as the negative control or positive control, respectively. MICs were recorded at the lowest peptide concentration without visible turbidity and spectrophotometrically by measuring the optical density (OD) at 492 nm (Tecan, Salzburg, Austria).

[2] = tested on: S. faecalis ATCC 29212; assay: MIC assay, S. faecalis ATCC 29212; conditions: two-fold dilution in 96-well plates, MHB, 2-7 × 10^5 CFU/mL, 18–24 h, 37 °C
Experimental: as §1

[3] = tested on: S. aureus ATCC 29213; assay: MIC assay, S. aureus ATCC 29213; conditions: two-fold dilution in 96-well plates, MHB, 2-7 × 10^5 CFU/mL, 18–24 h, 37 °C
Experimental: as §1

[4] = tested on: murine macrophage cell line (RAW264.7); assay: MTT cytotoxicity assay, RAW264.7; conditions: RAW264.7, peptide 64 μM, 18–24 h, 37 °C, OD 570 nm, n = 3
Experimental: (§2) The Roswell Park Memorial Institute-1640 (RPMI-1640) (Invitrogen, Carlsbad, CA, USA) and Dulbecco’s modified Eagle’s medium-high glucose (DMEM) (Gibco, China) were supplemented with 100 μg∙mL^−1 streptomycin sulfate, 100 U∙mL^−1 penicillin, and 10% (v/v) fetal bovine serum (Hyclone, Logan, UT, USA). These were used to culture the RAW264.7 and HEK293T cells, respectively. The peptides were added to cell cultures (1.0–2.0 × 10^4 cells/well) at different final concentrations (1–64 µM) in 96-well plates for 18–24 h at 37 °C in 5% CO2, and 3-(4,5-dimethylthiazol-2-yl)-2,5-diphenyltetrazolium bromide (MTT) (50 µL, 0.5 mg∙mL^−1) was injected and incubated with cell cultures for 4 h at 37 °C. Finally, the centrifuged cells without the supernatants were mixed with 150 µL of dimethyl sulfoxide to dissolve the formazan crystals that formed. The optical density (OD) was recorded by a microplate reader (Tecan, Salzburg, Austria) at 570 nm.

[5] = tested on: E. coli ATCC25922; assay: MIC assay, E. coli ATCC25922; conditions: two-fold dilution in 96-well plates, MHB, 2-7 × 10^5 CFU/mL, 18–24 h, 37 °C, three replicates on at least two occasions
Experimental: as §1

[6] = tested on: S. epidermidis ATCC 12228; assay: MIC assay, S. epidermidis ATCC 12228; conditions: two-fold dilution in 96-well plates, MHB, 2-7 × 10^5 CFU/mL, 18–24 h, 37 °C
Experimental: as §1

[7] = tested on: human embryonic kidney cells (HEK293T); assay: MTT cytotoxicity assay, HEK293T; conditions: peptide 64 μM, 18–24 h, 37 °C, OD 570 nm, n = 3
Experimental: as §2

[8] = tested on: S. typhimurium ATCC 14028; assay: MIC assay, S. typhimurium ATCC 14028; conditions: two-fold dilution in 96-well plates, MHB, 2-7 × 10^5 CFU/mL, 18–24 h, 37 °C
Experimental: as §1

[9] = tested on: human red blood cells (hRBCs); assay: Hemolytic activity assay; conditions: lowest peptide concentration that induces 5% hemolysis; hRBCs in PBS pH 7.4, 1 h, 37 °C, OD570
Experimental: Hemolytic activity measurements were performed to evaluate the effect of peptides on hemoglobin release levels by erythrocyte lysis. The experimental protocol was reviewed and approved by the ethics committee of the Northeast Agricultural University Hospital, and the experimental method was carried out in accordance with the approved guidelines and regulations. A total of 1 mL of fresh hRBCs was collected and diluted 10-fold with PBS (pH 7.4). A quantity of 50 μL of the hRBCs solution was incubated with 50 μL of serially diluted peptides dissolved in PBS for 1 h at 37 °C. hRBC suspension treated with 0.1% Triton X-100 was employed as a positive control and an untreated hRBC suspension was used as a negative control. A total of 50 μL of the supernatant was collected from the mixture after centrifugation (1000g, 5 min, 4 °C) and transferred to a new 96-well microplate. The percent hemolysis was calculated using the following equation: Hemolysis (%) = [(OD570 of the treated sample — OD570 of the negative control)/(OD570 of the positive control — OD570 of the negative control)] × 100%.

[10] = tested on: S. pullorum C79-13; assay: MIC assay, S. pullorum C79-13; conditions: two-fold dilution in 96-well plates, MHB, 2-7 × 10^5 CFU/mL, 18–24 h, 37 °C
Experimental: as §1

[11] = tested on: P. aeruginosa ATCC 27853; assay: MIC assay, P. aeruginosa ATCC 27853; conditions: two-fold dilution in 96-well plates, MHB, 2-7 × 10^5 CFU/mL, 18–24 h, 37 °C
Experimental: as §1

[12] = tested on: E. coli UB1005; assay: MIC assay, E. coli UB1005; conditions: two-fold dilution in 96-well plates, MHB, 2-7 × 10^5 CFU/mL, 18–24 h, 37 °C
Experimental: as §1

Substance	MIC [1] [µM]	MIC [2] [µM]	MIC [3] [µM]	cell survival rate [4] [%]	MIC [5] [µM]	MIC [6] [µM]	cell survival rate [7] [%]	MIC [8] [µM]	MHC5 (minimum hemolysis concentration 5%) [9] [µM]	MIC [10] [µM]	MIC [11] [µM]	MIC [12] [µM]
WIKAAAKAAAKIW-NH2 [WI]	8	32	32	100	8	32	96	32	256	8	32	8
WVKAAAKAAAKVW-NH2 [WV]	>128	64	>128	93	32	>128	93	>128	>256	64	>128	>128
WWKAAAKAAAKWW-NH2 [WW]	4	4	4	63	2	4	43	8	256	2	8	4
